For series [1] the following is noted: octanol/water.
Description: Lipophilicity, log K of the compound
The species entered for series [2] is Mus musculus. The series is described as follows: animal or person. To be noted: po, read-out: Inhibition.
A short description of the next series: physchem. To be noted: octanol/water.
A further series deals with Leukotriene B4 receptor (Homo sapiens, UniProt Q9NPC1+Q15722).
For the next series, the species on record is Rattus norvegicus. Briefly: animal or person. The note with it: read-out: Inhibition.
The species named for series [3] is Mus musculus. The series is described as follows: Antiinflammatory activity against dextran sodium sulfate-induced ulcerative colitis in BALB/c mouse assessed as stool consistency. It is filed as functional, organism-based.
The species named for series [4] is Mus musculus. The series is described as follows: Antiinflammatory activity against dextran sodium sulfate-induced ulcerative colitis in BALB/c mouse assessed as large intestinal bleeding. It is filed as functional, organism-based.
Series [5] has as its system Mus musculus. Briefly: Stimulation of hyperaemia in mouse at 200 mg/kg, po. Format: functional.
The species named for series [6] is Mus musculus. The series is described as follows: animal or person. The note with it: po, read-out: Inhibition. This is another data set of the same source.

Active and inactive are the calls of the source. The calls are words filed in the database; no cut-off is given here.

Description for Leukotriene B4 receptor: Displacement of [3H]LTB4 from LTB4 receptor in guinea pig spleen membrane
Description for physchem: Partition coefficient, log P of the compound

For `CN(CCc1ccccc1)C(=O)Cc1ccc(OCCCCOc2ccc(CC(=O)O)cc2)cc1`, the “log K” value in series [1] is listed as 0.287. Also, in the series listed under Mus musculus [2], the inhibition in vivo at 200 mg/kg came out at 45%. For the same compound, the logP in the series “physchem” amounted to 5.65. The compound also yielded an IC50 against Leukotriene B4 receptor of 4700 nM. Besides, the inhibition in vivo at 100 mg/kg in the series filed under Rattus norvegicus was determined as 30%.

Turning to `CN(CCc1ccccc1)C(=O)Cc1ccc(OCCCCOc2ccc(CC(=O)O)cc2Cl)cc1`, in [1], the “log K” value came to 0.364. Further, in the series filed under Mus musculus [2], the inhibition in vivo at 200 mg/kg came to 23%. The same compound gave a log partition coefficient (logP) in “physchem” of 6.3. Moreover, the IC50 against Leukotriene B4 receptor came to 1200 nM. Besides, the result in the series listed under Mus musculus [3] and in the series filed under Mus musculus [4] was inactive. Moreover, the inhibition in vivo at 100 mg/kg in the series filed under Rattus norvegicus turned out to be 32%.

In the case of `COc1cc(CC(=O)O)ccc1OCCCCOc1ccc(CC(=O)N(C)CCc2ccc(Br)cc2)cc1`, in series [1], the “log K” value stood at 0.354. Further, the inhibition in vivo at 200 mg/kg in the series filed under Mus musculus [2] stood at 38%. This compound returned a lipophilicity (logP) in the series “physchem” of 6.11. The same compound returned a half-maximal inhibitory concentration (IC50) on Leukotriene B4 receptor of 1900 nM. The result in the series filed under Mus musculus [3] and in the series listed under Mus musculus [4] was Active. The inhibition in vivo at 100 mg/kg in the series listed under Rattus norvegicus came out at 27%.

For `COc1cc(CC(=O)O)ccc1OCCCCOc1ccc(CC(=O)NCCc2ccccc2)cc1`, the “log K” value in [1] is -0.079. The inhibition in vivo at 200 mg/kg in the series listed under Mus musculus [2] was determined as 23%. In “physchem”, this compound gave a logP of 5.01. In addition, the Activity with Mus musculus [5] is given as 7.7%.

As to `Cc1ccc(CCN(C)C(=O)Cc2ccc(OCCCCOc3ccc(CC(=O)O)cc3)cc2)cc1`, the “log K” value in series [1] is on record as 0.471. In the series filed under Mus musculus [2], the inhibition in vivo at 200 mg/kg was 20%. Further, the logP in “physchem” was found to be 6.2. Also, the half-maximal inhibitory concentration (IC50) on Leukotriene B4 receptor turned out to be 660 nM.

`CN(CCc1ccccc1)C(=O)Cc1ccc(OCCCOc2ccc(CC(=O)O)cc2Cl)cc1`: the “log K” value in series [1] came out at 0.253. For the same compound, the inhibition in vivo at 200 mg/kg in the series filed under Mus musculus [2] worked out at 20%. In “physchem”, this compound displayed a logP of 5.81. The compound also gave a half-inhibitory concentration (IC50) against Leukotriene B4 receptor of 2400 nM. For the same compound, in the series filed under Rattus norvegicus, the inhibition in vivo at 100 mg/kg was determined as 12%.

With `CC(c1cc2ccccc2s1)N(O)C(N)=O` (stereo not given) [ZILEUTON], the inhibition in vivo at 200 mg/kg in the series listed under Mus musculus [6] came out at 13%. Further, in the series listed under Rattus norvegicus, the inhibition in vivo at 100 mg/kg turned out to be 46%.

`CN(CCc1ccccc1)C(=O)Cc1ccc(OCCCOc2ccc(CC(=O)O)cc2)cc1`: the “log K” value in series [1] is reported as 0.166. Also, in the series listed under Mus musculus [2], the inhibition in vivo at 200 mg/kg amounted to 20%. The lipophilicity (logP) in “physchem” was found to be 5.16. The concentration for half-maximal inhibition (IC50) against Leukotriene B4 receptor was 18000 nM. Besides, the inhibition in vivo at 100 mg/kg in the series listed under Rattus norvegicus turned out to be 39%.

Regarding `Cc1cccc(CCN(C)C(=O)Cc2ccc(OCCCCOc3ccc(CC(=O)O)cc3)cc2)c1`, in [1], the “log K” value was 0.47. Also, in the series listed under Mus musculus [2], the inhibition in vivo at 200 mg/kg is 44%. In addition, the lipophilicity (logP) in “physchem” was 6.2. Further, on Leukotriene B4 receptor, the half-inhibitory concentration (IC50) stood at 1100 nM. Also, in the series listed under Rattus norvegicus, the inhibition in vivo at 100 mg/kg came out at 14%.

In the case of `COc1cc(CC(=O)O)ccc1OCCCOc1ccc(CC(=O)N(C)CCc2ccccc2)cc1`, the “log K” value in series [1] is on record as 0.013. Besides, the inhibition in vivo at 200 mg/kg in the series listed under Mus musculus [2] was 14%. The same compound showed a log partition coefficient (logP) in the series “physchem” of 4.73. In addition, at Leukotriene B4 receptor, the 50% inhibitory concentration (IC50) was 67000 nM.

For `COc1cc(CC(=O)O)ccc1OCCCOc1ccc(CC(=O)N(C)CCc2ccc(Br)cc2)cc1`, the “log K” value in [1] came to 0.193. Also, the inhibition in vivo at 200 mg/kg in the series listed under Mus musculus [2] was found to be 38%. The same compound came in with a logP in the series “physchem” of 5.62. The inhibition in vivo at 100 mg/kg in the series filed under Rattus norvegicus is 3%.

In the case of `COc1cc(CC(=O)O)ccc1OCCCCOc1ccc(CC(=O)N(C)CCc2ccccc2)cc1`, the “log K” value in series [1] was 0.12. Further, the inhibition in vivo at 200 mg/kg in the series filed under Mus musculus [2] was 21%. The compound further had a log partition coefficient (logP) in “physchem” of 5.22. Further, the half-maximal inhibitory concentration (IC50) on Leukotriene B4 receptor worked out at 8600 nM. In addition, the inhibition in vivo at 100 mg/kg in the series filed under Rattus norvegicus turned out to be 0%.

With `O=C(O)Cc1ccc(OCCCCOc2ccc(CC(=O)NCCc3ccccc3)cc2)cc1`, the “log K” value in series [1] turned out to be 0.089. Besides, the inhibition in vivo at 200 mg/kg in the series filed under Mus musculus [2] amounted to 23%. In “physchem”, this compound displayed a lipophilicity (logP) of 5.44.

As usually defined, the logP is the decadic logarithm of the partition coefficient of the neutral form, usually between octanol and water. The IC50 is the concentration needed to halve the response being measured. A lower IC50 goes with higher potency.

Source of the values: ChEMBL document CHEMBL1148014, “Antileukotrienic N-arylethyl-2-arylacetamides in the treatment of ulcerative colitis” (Eur J Med Chem, 2007).
